The values that follow come from ChEMBL document CHEMBL4765335, “Privileged scaffold-based design to identify a novel drug-like 5-HT receptor-preferring agonist to target Fragile X syndrome” (Eur J Med Chem, 2020).

The nature of this data set: in vitro. The following applies: rat, liver microsomes. For orientation: Liver microsomes are vesicles of endoplasmic reticulum, rich in cytochrome P450 enzymes.
As to `COc1ccc(-c2ccccc2N2CCN(CCCCOc3ccccc3C#N)CC2)cc1`, the fraction remaining at 0.5 h, 10 µM was determined as 7%.

Compound `COc1ccc(-c2ccccc2C2CCN(CCCCOc3cnccn3)CC2)cc1` had a share remaining at 0.5 h, 10 µM of 6%.

As for `COc1ccc(-c2ccccc2N2CCN(C[C@@H](O)COc3ccc(-c4cn5ccccc5n4)cc3)CC2)cc1`, the amount remaining at 0.5 h, 10 µM worked out at 48%.

For orientation: amount remaining means the share of the starting amount still present when the sample was taken.
